Patent US5661154A (priority 1988, dated 1997)
“Also recorded” adds a separate entry of the source. Like-named read-outs stand apart in the source and are kept apart here.

Legend:
[1] = pH value of aqueous solution; type: physicochemical; conditions: 5% aqueous solution
From the text: However, from the examples it can be seen that not the pure sodium salt was used, but a mixture of salt and excess sodium hydroxide solution. This follows especially from the pH values of about 1 to 2% solutions, being 11.5 or 12.0. The sodium salt having been prepared by the applicant in pure and crystalline form for the first time has a pH value of 9.7 in 5% aqueous solution, and crystallizes as the monohydrate.
(§1) Said sodium salt is monosodium oxypurinol monohydrate. The salt is white and crystallizes in fine needles.

Solubility = type: physicochemical; conditions: methanol/water 3:1, organic solvent or mixture; 25° C.; read-out: solubility in methanol/water (3:1 by vol.)
From the text: as §1

[2] = Stability of the salt on air and on drying; type: physicochemical
Method: The salt is stable on air and endures drying temperatures up to about 70° C.

serum uric acid = experiment: Uric acid decreasing effect in test persons with hyperuricaemia; type: in vivo; conditions: for decrease of the serum uric acid level: daily 384 mg sodium oxypurinol or 300 mg allopurinol, two weeks; for decrease of the serum uric acid level (in words): sodium oxypurinol compared with allopurinol
xanthine oxidase = conditions: cited from earlier work; for inhibiting the enzyme xanthine oxidase: allopurinol and oxypurinol compared with each other
[3] = cited from earlier work
[4] = portion of allopurinol; cited from earlier work

Row | pH value [1] | solubility (Solubility) | endures drying temperatures up to ([2]; drying) | stability on air ([2]; on air) | Structure (SMILES) | decrease of the serum uric acid level (serum uric acid) | decrease of the serum uric acid level (in words) (serum uric acid; monohydrate) | inhibiting the enzyme xanthine oxidase (xanthine oxidase) | resorbable upon peroral application ([3]; from galenic formulations, per os) | decrease of the serum uric acid level (in words) (serum uric acid) | activity of allopurinol itself (xanthine oxidase; therapeutic effect only after metabolizing to oxypurinol) | excreted via kidneys [4] | resorbable upon peroral application ([3]; in vivo)
1 | 9.7 | ~2000 µg/mL | about 70 °C | stable on air | Oc1nc(O)c2cn[nH]c2n1 [sodium oxypurinol, monosodium oxypurinol monohydrate] | 2.1 mg/100 ml | comparable; also recorded: approximately equal decrease | – | – | – | – | – | –
2 | – | – | – | – | Oc1nc(O)c2cn[nH]c2n1 [oxypurinol, 4,6-dihydroxypyrazolo[3,4-d]pyrimidine] | – | – | equally strongly | no success was achieved in finding a galenic formulation being sufficiently resorbable per os | – | – | – | –
3 | – | – | – | – | Oc1ncnc2[nH]ncc12 [allopurinol] | 2.0 mg/100 ml | – | equally strongly | – | comparable; also recorded: approximately equal decrease | little activity itself | 3 to 10% | well resorbable
